# From patent US20250127169A1, “PLANTS HAVING INCREASED TOLERANCE TO HERBICIDES” (BASF Agricultural Solutions Seed US LLC, priority 2021, published 2025)
# Read-outs that look alike come from different tables or passages of the source.
# Key:
# [1] = tested on: Soybean cv Jake WT (non-transgenic); assay type: in vivo; details: post, single plants
# Protocol: Soybean cv Jake is transformed as previously described by Siminszky et al., Phytochem Rev. 5:445-458 (2006). After regeneration, transformants are transplanted to soil in small pots, placed in growth chambers (16 hr day/8 hr night; 25° C. day/23° C. night; 65% relative humidity; 130-150 microE m-2 s-1) and subsequently tested for the presence of the T-DNA via Taqman analysis. After a few weeks, healthy, transgenic positive, single copy events are transplanted to larger pots and allowed to grow in the growth chamber. An optimal shoot for cutting is about 3-4 inches tall, with at least two nodes present. Each cutting is taken from the original transformant (mother plant) and dipped into rooting hormone powder (indole-3-butyric acid, IBA). The cutting is then placed in oasis wedges inside a bio-dome. The mother plant is taken to maturity in the greenhouse and harvested for seed. Wild type cuttings are also taken simultaneously to serve as negative controls. The cuttings are kept in the bio-dome for 5-7 days and then transplanted to 3 inch pots and then acclimated in the growth chamber for two more days. Subsequently, the cuttings are transferred to the greenhouse, acclimated for approximately 4 days prior to spray. T0 or 2-week old T1 plants are sprayed with a treatment of the phenyluracils as disclosed SUPRA and optionally photosynthesis inhibitor diuron as negative control. Herbicide injury evaluations are taken at 2, 7, 14 and 21 days after treatment.
# Evaluation performed 3 Days After Treatment (DAT) and 1 Week after Treatment (WAT) and shown as injury (0-9) relative to non-transgenic treated plants. Injury Scale: 0-9, 0=no injury, 9=maximum injury. Note: segregating lines.
# The following gives a definition of the injury scores measured above: • Score Description of injury • 0 No Injury • 1 Minimal injury, only a few patches of leaf injury or chlorosis. • 2 Minimal injury with slightly stronger chlorosis. Overall growth points remain undamaged. • 3 Slightly stronger injury on secondary leaf tissue, but primary leaf and growth points are still undamaged. • 4 Overall plant morphology is slightly different, some chlorosis and necrosis in secondary growth points and leaf tissue. Stems are intact. Regrowth is highly probable within 1 week. • 5 Overall plant morphology is clearly different, some chlorosis and necrosis on a few leaves and growth points, but primary growth point is intact. Stem tissue is still green. Regrowth is highly probably within 1 week. • 6 Strong injury can be seen on the new leaflet growth. Plant has a high probability to survive only through regrowth at different growth points. Most of the leaves are chlorotic/necrotic but stem tissue is still green. May have regrowth but with noticeable injured appearance. • 7 Most of the active growth points are necrotic. There may be a single growth point that could survive and may be partially chlorotic or green and partially necrotic. Two leaves may still be chlorotic with some green; the rest of the plant including stem is necrotic. • 8 Plant will likely die, and all growth points are necrotic. One leaf may still be chlorotic with some green. The remainder of the plant is necrotic. • 9 Plant is dead.
# [2] = tested on: Soybean CD215 WT (non-transgenic); assay type: in vivo; details: post, single plants
# [3] = biological target: PPO AMATU WT (SEQ ID NO: 1) (Amaranthus tuberculatus, UniProt Q0NZW9); experiment: PPO enzyme assay (recombinant); assay type: biochemical; details: 150 μM Protogen, molar concentration for 50% enzyme inhibition
smiles,measurement,setting,value
COC(=O)C(OC)Oc1ccccc1Oc1cc(-n2c(=O)cc(C(F)(F)F)n(C)c2=O)c(F)cc1Br (stereo not drawn) [Phenyluracil No. 1],injury (0-9),"[1]; 25 g/ha + 1% MSO, 1WAT",9 (Plant is dead.)
same,injury (0-9),"[1]; 25 g/ha + 1% MSO, 3DAT",9 (Plant is dead.)
same,injury (0-9),"[1]; 50 g/ha + 1% MSO, 1WAT",9 (Plant is dead.)
same,injury (0-9),"[1]; 50 g/ha + 1% MSO, 3DAT",9 (Plant is dead.)
same,injury (0-9),"[1]; 100 g/ha + 1% MSO, 1WAT",9 (Plant is dead.)
same,injury (0-9),"[1]; 100 g/ha + 1% MSO, 3DAT",9 (Plant is dead.)
same,injury (0-9),"[2]; 25 g/ha + 1% MSO, 1WAT",9 (Plant is dead.)
same,injury (0-9),"[2]; 25 g/ha + 1% MSO, 3DAT",9 (Plant is dead.)
same,injury (0-9),"[2]; 50 g/ha + 1% MSO, 1WAT",9 (Plant is dead.)
same,injury (0-9),"[2]; 50 g/ha + 1% MSO, 3DAT",9 (Plant is dead.)
same,injury (0-9),"[2]; 100 g/ha + 1% MSO, 1WAT",9 (Plant is dead.)
same,injury (0-9),"[2]; 100 g/ha + 1% MSO, 3DAT",9 (Plant is dead.)
"COC(=O)C(OC)Oc1ccccc1Oc1cc(-n2c(=O)cc(C(F)(F)F)n(C)c2=O)c(F)cc1Br (stereo not drawn) [phenyluracil 1, methyl 2-[2-[2-bromo-4-fluoro-5-[3-methyl-2,6-dioxo-4-(trifluoromethyl)pyrimidin-1-yl]phenoxy]phenoxy]-2-methoxy-acetate]",IC50,[3],716 pM
"CCOC(=O)C(OC)Oc1ccccc1Oc1cc(-n2c(=O)cc(C(F)(F)F)n(C)c2=O)c(F)cc1Br (stereo not drawn) [phenyluracil 2, ethyl 2-[2-[2-bromo-4-fluoro-5-[3-methyl-2,6-dioxo-4-(trifluoromethyl)pyrimidin-1-yl]phenoxy]phenoxy]-2-methoxy-acetate]",IC50,[3],323 pM
"COC(Oc1ccccc1Oc1cc(-n2c(=O)cc(C(F)(F)F)n(C)c2=O)c(F)cc1Br)C(=O)O (stereo not drawn) [phenyluracil 3, 2-[2-[2-bromo-4-fluoro-5-[3-methyl-2,6-dioxo-4-(trifluoromethyl)pyrimidin-1-yl]phenoxy]phenoxy]-2-methoxy-acetic acid]",IC50,[3],183 pM
